From patent US20090186838A1, “Amphotericin Derivatives” (Eidgenössische Technische Hochschule Zürich, priority 2006, published 2009)
≈ marks a conversion by molar mass, not a printed value. Where “and” joins values, the source holds several entries; their conditions need not be identical. Equal values may be shown once. Read-outs that look alike come from different tables or passages of the source.

How the values were obtained:
[1] = system: DSY-1751 C. albican mutant erg3; assay: MIC determination in Candida strain DSY-1751; type: cell-based, Candida albicans; settings: Candida albicans
Procedure: (§1) In Vitro Antifungal Activity. MIC values for various strains were determined in accordance with the standard protocol from the National Committee of Clinical Laboratory Standards but using YEPD liquid medium instead of RPMI-1640 medium (National Committee of Clinical Laboratory Standards (Reference Method for Broth Dilution Antifungal Susceptibility Testing of Yeast, M27-A2, Approved Standard-Second Edition, Volume 22, Number 15, 1995). AmB was used as a reference. The strains were cultivated overnight in 5 mL YEPD liquid medium at 30 to 37° C. (30° C. for the strain BY4741; 37° C. for the strain DSY1764) with constant shaking. The saturated cultures were diluted to an ODB600 of 0.1 (3×10P^7 cells/mL). Using 24 wells plate, each well was prepared by adding 1% (12 μL) of DMSO solution of the tested polyene macrolide with 1% (12 μL) yeast cells solution and completed with YEPD (1.176 mL). The plates were sealed with Parafilm and then incubated for 18 to 36 hours at 30 to 37° C. (18 hours at 30° C. for the strain BY4741; 36 hours at 37° C. for the strain DSY1764). The optical density was read at 600 nm using 1.5 mL cuvettes. The MIC value was defined as the drug concentration needed to inhibit growth, less than 5% compared to a drug-free culture.
(§2) MIC values of the polyene macrolides 3, 9 and 10 (Diamine-AmB and its ester and diamide derivative, respectively) in various Candida strains including an AmB-resistant strain C. albicans (DSY1764, with the genotype erg3AΔ::hisG/erg3BΔ::hisG erg11Δ::hisG/erg11Δ::hisG-URA3-hisG) were determined.

[2] = system: DSY-654 C. albican mutant cdr1/2; assay: MIC determination in Candida strain DSY-654; type: cell-based, Candida albicans; settings: Candida albicans
Procedure: as §1, §2

DSY-562 C. glabrata CI = assay: MIC determination in Candida strain DSY-562; type: cell-based; settings: Nakaseomyces glabratus
Procedure: as §1, §2

[3] = system: Saccharomyces cerevisiae wild type BY4741; assay: MIC determination in Saccharomyces cerevisiae wild type BY4741; type: cell-based; settings: for MIC: read-out: MIC
Procedure: as §1
MIC values of various polyene macrolides of the invention in Saccharomyces cerevisiae wild type BY4741, a derivative of S288C, (with AmB as a reference) were determined as described hereinabove.
Based on the remarkable performance observed with the Diamine-AmB conjugate similar modifications of the aminosugar moiety were made on other polyene macrolides, such as for example Nystatin (1b) and Pimaricin (1c). The antifungal activity of these nystatin and pimaricin conjugates bearing two aminopropyl side chains was measured using Saccharomyces cerevisiae wild type BY4741.

[4] = system: DSY-1764 C. albican mutant erg3/11 (AmB-resistant strain); assay: MIC determination in AmB-resistant Candida strain DSY-1764; type: cell-based, Candida albicans; settings: Candida albicans, 36 h
Procedure: as §1, §2

CAF2-1 C. albican wt = assay: MIC determination in Candida strain CAF2-1; type: cell-based, Candida albicans; settings: Candida albicans
Procedure: as §1, §2

DSY-565 C. glabrata CI = assay: MIC determination in Candida strain DSY-565; type: cell-based; settings: Nakaseomyces glabratus
Procedure: as §1, §2

Solubility assay = type: physicochemical; settings: PBS buffer, pH 7.2, aqueous buffer, kinetic from dmso stock, DMSO stock added to PBS buffer solution pH 7.2; precipitation point by light scattering at 600 nm; read-out: Solubility in water
Procedure: Solubility assay. The solubility assay was performed according to Lipinski, C. A. et al Advances Drug Delivery Reviews 2001, 46, 3-26. Typically, a compound of the invention was dissolved in DMSO at a concentration of 10 μg/μl. The so obtained solution was added in […] at 1 min intervals to 2.5 ml PBS buffer solution pH 7.2. These additions correspond to solubility increments of 5 μg/ml to a top value of 65 μg/ml. A total of 14 additions were made and each time increased UV absorbance from light scattering was measured at 600 nm. The precipitation point was calculated from a bilinear curve fit to the Absorbance (y axis) versus μl of DMSO (x axis) plot.
The solubility of the polyene macrolides of the invention in water was tested following the above described protocol. Clearly, all conjugates were more soluble in water then AmB.

human erythrocytes = assay: Hemolytic assay (EH50); type: cell-based
Procedure: Hemolytic Assay. The hemotoxicity of the polyene macrolide derivatives of the invention was determined by measuring the toxicity towards human erythrocytes (EH50 value) using an established assay (Kinsky, S. C. et al., Biochem. Biophys. Res. Comm. 1962, 9, 503). Human blood, anticoagulated with citrate or EDTA, was centrifuged (2000×g) at 4° C. for 10 minutes. The pellets were washed three times with PBS buffer (pH 7.2 with 2 g/L glucose) and then diluted to a concentration of 4% (4×10^8 cells/mL). All experiments were done in triplo and the total volume for the hemolysis tubes was 1.4 ml. The solutions were prepared by adding 1% (14 μL) of DMSO solution of the tested compound with […] of PBS buffer and completed with 750 μL of 4% erythrocytes. After one hour incubation at 37° C., the samples were centrifuged (1500×g) at 4° C. for 5 min and the absorbance of the supernatant was measured at 560 nm. The concentration that led to 50% hemolysis (EH50) was intrapolated graphically. The value for the 100% hemolysis was obtained by the treatment with 100 μM of AmB.
The toxicity of AmB (1a) and the polyene macrolides 3, 9 and 10 towards human erythrocytes was examined using the above described hemolysis assay (Table 3).

DSY-294 C. albican CI = assay: MIC determination in Candida strain DSY-294; type: cell-based, Candida albicans; settings: Candida albicans
Procedure: as §1, §2

[5] = K+ efflux assay, cholesterol containing vesicles; settings: lower concentration, 0.1 μM (FIG. 3a,c,e,g)
Procedure: (§3) FIG. 3. K^+ efflux from vesicles (LUVET100) prepared from […] (POPC) (solid line) or POPC with sterols (dotted line) for ergosterol and (broken line) for cholesterol caused by AmB (1a) (FIGS. 3a,b) and AmB diamine 3 (FIG. 3c,d), AmB diamine ester 9 (FIG. 3e,f) and AmB diamine amide 10 (FIG. 3g,h), added in DMSO to a suspension of vesicles to give final concentrations of 0.1 μM (FIG. 3a,c,e,g) and 1.0 μM (FIG. 3b,d,f,h).
K+ efflux assay. The K^+ efflux measurements were made following a previously described procedure (Zumbuehl, A. et al., Angew. Chem. Int. Ed. 2004, 43, 5181-5185; Zumbuehl, A. et al., Org. Lett. 2004, 6, 3683-3686). The appropriate liposome suspensions were prepared using POPC, cholesterol and ergosterol. Then the liposomes were sized by extrusion through two 400 nm, 200 nm, and finally 100 nm pore size membrane. The resultant “100 nm” unilamellar liposomes were dialyzed against 600 mL of 150 mM NaCl, 5 mM HEPES (pH 7.4) buffer. After, the suspension was diluted with 150 mM NaCl, 5 mM HEPES (pH 7.4) buffer to 1 mM overall lipid concentration (phospholipids+sterols). For each efflux measurement 10 mL of this liposome suspension was placed in a small beaker. Potentiometric measurements were performed with a 16-channel electrode monitor in magnetically stirred solutions at ambient temperature. The reference electrode was a Metrohm double junction Ag/AgCl reference electrode with 3 M KCl as reference electrolyte and 1 M LiOAc as bridge electrolyte. After recording the amphotericin-induced potassium efflux, liposomes were lysed by adding sodium cholate (172 mg). The resulting reading (taken after 0.5 h) was used to quantify the 100% K+-release.
As described hereinbefore differential interaction between ergosterol found in fungal membranes and cholesterol in mammalian cells is considered the basis for the selectivity of AmB (1a) as an antifungal agent. The preferential stabilization of ion channel formation in the membrane by ergosterol ultimately results in electrolyte leakage which can be conveniently measured by K^+ efflux from sterol containing vesicles. To assess the interaction of the polyene macrolide derivatives of the invention with sterols, derivatives 3, 9 and 10 were examined in their ability to lead to K^+ efflux from large unilamellar vesicles (LUV) prepared from POPC (1-palmitoyl-2-oleoyl-sn-glycero-3-phosphocholine) admixed with sterols, mimicking conditions in natural biomembranes (FIG. 3). At high concentration (FIG. 3b,d,f,h), all compounds rapidly induce complete K^+ efflux from vesicles containing ergosterol (dotted line). […] This differentiation between ergosterol and cholesterol is consistent with the observation of reduced hemotoxicity of 3, 9 and 10.

[6] = K+ efflux assay, ergosterol containing vesicles; settings: lower concentration, 0.1 μM (FIG. 3a,c,e,g)
Procedure: as §3
K+ efflux assay. The K^+ efflux measurements were made following a previously described procedure (Zumbuehl, A. et al., Angew. Chem. Int. Ed. 2004, 43, 5181-5185; Zumbuehl, A. et al., Org. Lett. 2004, 6, 3683-3686). The appropriate liposome suspensions were prepared using POPC, cholesterol and ergosterol. Then the liposomes were sized by extrusion through two 400 nm, 200 nm, and finally 100 nm pore size membrane. The resultant “100 nm” unilamellar liposomes were dialyzed against 600 mL of 150 mM NaCl, 5 mM HEPES (pH 7.4) buffer. After, the suspension was diluted with 150 mM NaCl, 5 mM HEPES (pH 7.4) buffer to 1 mM overall lipid concentration (phospholipids+sterols). For each efflux measurement 10 mL of this liposome suspension was placed in a small beaker. Potentiometric measurements were performed with a 16-channel electrode monitor in magnetically stirred solutions at ambient temperature. The reference electrode was a Metrohm double junction Ag/AgCl reference electrode with 3 M KCl as reference electrolyte and 1 M LiOAc as bridge electrolyte. […] The resulting reading (taken after 0.5 h) was used to quantify the 100% K+-release.
As described hereinbefore differential interaction between ergosterol found in fungal membranes and cholesterol in mammalian cells is considered the basis for the selectivity of AmB (1a) as an antifungal agent. The preferential stabilization of ion channel formation in the membrane by ergosterol ultimately results in electrolyte leakage which can be conveniently measured by K^+ efflux from sterol containing vesicles. […]

[7] = Saccharomyces cerevisiae wild type BY4741, YEPD liquid medium, 18 hours at 30° C.

Row | SMILES | MIC [1] | MIC [2] | MIC (DSY-562 C. glabrata CI) | MIC [3, 7] | MIC [4] | MIC (CAF2-1 C. albican wt) | MIC (DSY-565 C. glabrata CI) | solubility (Solubility assay) | EH50 (human erythrocytes; concentration that led to 50% hemolysis of human erythrocytes, one hour at 37° C.) | times less toxic than AmB (EH50) (human erythrocytes; human erythrocytes, relative to AmB (1a)) | MIC (DSY-294 C. albican CI) | K+ efflux with cholesterol containing vesicles [5] | K+ efflux with ergosterol containing vesicles [6] | times more active than AmB (MIC) ([3]; Saccharomyces cerevisiae wild type BY4741, relative to AmB) | MIC ([3]; Saccharomyces cerevisiae, Table 3, strain not given, values as in Table 1 (S. cerevisiae BY4741))
1 | C[C@@H]1[C@H](O)[C@@H](C)/C=C/C=C/C=C/C=C/C=C/C=C/C=C/[C@H](O[C@@H]2O[C@H](C)[C@@H](O)[C@H](N(CCCN)CCCN)[C@@H]2O)CC2O[C@](O)(C[C@@H](O)C[C@@H](O)[C@H](O)CC[C@@H](O)C[C@@H](O)CC(=O)O[C@H]1C)C[C@H](O)[C@H]2C(=O)N1CCN(C)CC1 [compound 12, 16-(N′-(1-Methylpiperazinyl)carboxamide)-N,N-di-(3-aminopropyl)-AmB] | 0.4 µM (≈ 0.448 µg/mL) | 0.4 µM (≈ 0.448 µg/mL) | 0.3 µM (≈ 0.336 µg/mL) | 0.2 µM (≈ 0.224 µg/mL) | 1 µM (≈ 1.12 µg/mL) | 0.3 µM (≈ 0.336 µg/mL) | 0.2 µM (≈ 0.224 µg/mL) | – | – | – | – | – | – | – | –
2 | C[C@@H]1[C@H](O)[C@@H](C)/C=C/C=C/C=C/C=C/C=C/C=C/C=C/[C@H](O[C@@H]2O[C@H](C)[C@@H](O)[C@H](N(CCCN)CCCN)[C@@H]2O)C[C@@H]2O[C@](O)(C[C@@H](O)C[C@@H](O)[C@H](O)CC[C@@H](O)C[C@@H](O)CC(=O)O[C@H]1C)C[C@H](O)[C@H]2C(=O)O [compound 3, N,N-Di-(3-aminopropyl)-AmB] | – | – | 0.2 µM (≈ 0.208 µg/mL) | 0.02 µM and 0.020 µM | 1 µM (≈ 1.04 µg/mL) | 0.1 µM (≈ 0.104 µg/mL) | 0.2 µM (≈ 0.208 µg/mL) | 12 µg/mL (≈ 11.6 µM) | 10 µM | 2.5 times | 0.2 µM (≈ 0.208 µg/mL) | indistinguishable from background | observed exclusively with the ergosterol containing vesicles | 15 times | 0.02 µM (≈ 0.0208 µg/mL)
